The target of assay [1] is T1, cyclo-oxygenase (Ovis aries, UniProt P05979).
T1 construct: Ram seminal vesicle microsomes; from tissue; host or cells: ram seminal vesicle microsomes
T1 sequence (P05979 25-600): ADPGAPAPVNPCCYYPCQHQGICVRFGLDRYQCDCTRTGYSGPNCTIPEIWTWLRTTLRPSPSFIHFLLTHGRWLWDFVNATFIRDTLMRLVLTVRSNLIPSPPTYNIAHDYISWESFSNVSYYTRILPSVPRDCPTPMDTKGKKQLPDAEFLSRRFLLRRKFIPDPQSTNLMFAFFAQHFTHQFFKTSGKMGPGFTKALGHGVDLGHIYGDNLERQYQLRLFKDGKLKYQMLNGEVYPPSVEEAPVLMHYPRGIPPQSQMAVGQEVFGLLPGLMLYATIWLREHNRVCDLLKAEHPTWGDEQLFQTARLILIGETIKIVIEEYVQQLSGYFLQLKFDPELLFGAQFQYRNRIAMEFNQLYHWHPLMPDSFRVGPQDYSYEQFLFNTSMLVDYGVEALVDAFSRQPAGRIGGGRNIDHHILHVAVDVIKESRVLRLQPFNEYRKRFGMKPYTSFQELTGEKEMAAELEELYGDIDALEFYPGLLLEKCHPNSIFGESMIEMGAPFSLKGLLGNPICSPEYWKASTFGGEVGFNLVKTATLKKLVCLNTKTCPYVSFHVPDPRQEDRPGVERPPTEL
Briefly: Cyclo-oxygenase in vitro enzyme assay. The assay is classed as biochemical. The following applies: ram seminal vesicle microsomes, arachidonic acid 100 μM, 22° C., 1 min; 5 min pre-incubation; read-out: Concentration causing 50% inhibition of (2) cyclo-oxygenase. As to the method: The effect of the compounds of the formula (I) on the thromboxane synthetase enzyme, and the prostacyclin synthetase and cyclo-oxygenase enzymes has been measured by the following in vitro enzyme assay tests:
Ram seminal vesicle microsomes (Biochemistry, 1971, 10, 2372) are incubated with arachidonic acid (100 μM) at 22° C. for a period of one minute so as to produce PGH2, and aliquots of this reaction mixture are then injected into a stream of Krebs-bicarbonate at 37° C. [containing a mixture of antagonists (Nature, […], 218, 1135) and indomethacin (Brit. J. Pharmacol., 1972, 45, 451)] which is superfusing a spirally-cut rabbit aorta strip (Nature, 1969, 223, 29). The ability of a compound to inhibit the enzyme is measured by comparing the increases in isometric tension produced by PGH2 in the absence of the test compound and again, following pre-incubation of the enzyme with the test compound for a period of five minutes.

For assay [2], the target named is T2, thromboxane synthetase (Homo sapiens, UniProt P24557).
T2 construct: Indomethacin-pretreated human platelet microsomes; from tissue; host or cells: human platelet microsomes
T2 sequence (P24557 1-533): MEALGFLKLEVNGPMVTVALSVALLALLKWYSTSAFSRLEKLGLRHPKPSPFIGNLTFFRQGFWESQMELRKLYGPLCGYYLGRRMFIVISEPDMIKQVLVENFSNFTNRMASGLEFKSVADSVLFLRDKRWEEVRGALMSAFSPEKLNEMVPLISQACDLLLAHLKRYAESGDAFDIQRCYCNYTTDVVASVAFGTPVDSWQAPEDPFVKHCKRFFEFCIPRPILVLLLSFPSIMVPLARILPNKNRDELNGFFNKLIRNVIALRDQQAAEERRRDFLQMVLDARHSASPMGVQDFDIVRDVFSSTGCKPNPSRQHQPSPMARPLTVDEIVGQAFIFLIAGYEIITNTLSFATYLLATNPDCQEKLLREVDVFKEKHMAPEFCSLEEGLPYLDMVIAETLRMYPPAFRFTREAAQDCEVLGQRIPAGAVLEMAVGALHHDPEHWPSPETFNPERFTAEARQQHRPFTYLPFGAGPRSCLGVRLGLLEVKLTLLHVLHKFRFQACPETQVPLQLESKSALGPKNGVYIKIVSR
Kind of assay: Thromboxane A2 (TxA2) synthetase in vitro enzyme assay. The assay is classed as biochemical. The conditions noted are these: for IC50: indomethacin-pretreated human platelet microsomes, PGH2, 0° C., 2 min, 5 min pre-incubation, read-out: Concentration causing 50% inhibition of (1) thromboxane synthetase; for Ratio of (3) to (1): prostacyclin synthetase / thromboxane synthetase 50% inhibition concentrations. The procedure: Indomethacin-pretreated human platelet microsomes (Science, 1976, 193, 163) are incubated with PGH2 (produced as described in test No. 1) at 0° C. for a period of two minutes, and aliquots of the reaction mixture are then superfused over two rabbit aorta spirals which are separated by a delay coil (2 min.). The latter is required in order to allow for the selective decay of the more unstable thromboxane A2 (Proc. Nat. Acad. Sci., 1975, 72, 2994), thereby enabling separate measurement of the increased isometric tension due to the TxA2 formed and the PGH2 remaining to take place. The test compound is then pre-incubated with the enzyme for a period of five minutes, and its ability to inhibit the thromboxane synthetase enzyme is measured as its reduction of the TxA2 component of the isometric tension.

The target in assay [3] is T3, prostacyclin synthetase (Sus scrofa, UniProt A0A5G2QT35).
T3 construct: Pig aorta microsomes; from tissue; host or cells: pig aorta microsomes
T3 sequence (A0A5G2QT35 1-497): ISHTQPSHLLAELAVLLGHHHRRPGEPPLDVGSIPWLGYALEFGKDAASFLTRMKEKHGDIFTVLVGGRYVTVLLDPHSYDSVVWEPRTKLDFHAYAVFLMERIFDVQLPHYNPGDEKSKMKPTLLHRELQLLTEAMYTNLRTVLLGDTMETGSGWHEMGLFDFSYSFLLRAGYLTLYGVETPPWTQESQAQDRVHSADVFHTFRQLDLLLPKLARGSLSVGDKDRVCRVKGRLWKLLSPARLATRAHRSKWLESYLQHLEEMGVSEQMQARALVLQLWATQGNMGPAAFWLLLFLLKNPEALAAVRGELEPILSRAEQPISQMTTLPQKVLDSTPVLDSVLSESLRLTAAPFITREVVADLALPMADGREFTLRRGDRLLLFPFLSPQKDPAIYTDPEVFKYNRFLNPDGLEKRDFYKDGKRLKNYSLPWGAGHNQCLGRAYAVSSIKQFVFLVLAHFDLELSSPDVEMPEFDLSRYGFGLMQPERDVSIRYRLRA
Kind of assay: Prostacyclin (PGI2) synthetase in vitro enzyme assay. The assay is classed as biochemical. The following applies: pig aorta microsomes, PGH2, 22° C., 30 seconds; 5 min pre-incubation; read-out: Concentration causing 50% inhibition of (3) prostacyclin synthetase.

In assay [4] the target is T3, prostacyclin synthetase. The conditions noted are these: pre-incubation of the enzyme with the selective PGI2 synthetase inhibitor; cited from earlier work.
Assay [5] relates to rabbit. The following applies: intravenous arachidonic acid, rabbits; cited from earlier work.
Assay [6] concerns human blood platelet aggregation. The conditions noted are these: variety of aggregating agents; cited from earlier work.
Assay [7] concerns cyclo-oxygenase enzyme. The conditions noted are these: in words; cited from earlier work.
Assay [8] relates to stroke and heart attack. The following applies: clinical evaluation; cited from earlier work.

Molecules are shown by their SMILES. Where only a bound is given, the exact number is not on record here.

For the compound `Cn1cc(Cn2ccnc2)c2ccccc21` [XXVII, 3-(imidazol-1-ylmethyl)-1-methylindole], the IC50 in assay [1] was more than 100 µM; in assay [2], 0.002 µM; in assay [3], more than 100 µM. Further, the “Ratio of (3) to (1)” value in assay [2] is recorded as > 50,000.
Turning to `CC(C)c1[nH]c2ccccc2c1Cn1ccnc1` [Example I, 3-(imidazol-1-ylmethyl)-2-isopropylindole], the IC50 was more than 100 µM in assay [1], 0.017 µM in assay [2] and more than 100 µM in assay [3]. Moreover, the “Ratio of (3) to (1)” value in assay [2] is recorded as > 6,000.
As for `Brc1ccc2[nH]cc(Cn3ccnc3)c2c1` [IX, 5-bromo-3-(imidazol-1-ylmethyl)indole], the IC50 in assay [1] is more than 100 µM; in assay [2], 0.1 µM; in assay [3], 17 µM. In assay [2], the “Ratio of (3) to (1)” value is 170.
With `CCCCCC(/C=C/C=C\C/C=C\C/C=C\CCCC(=O)O)OO` (centres unmarked) [15-hydroperoxy-arachidonic acid], the “prevention of the decrease in PGH2-induced tension” value in assay [4] was “prevented completely”.
Take `Cl.c1ccc(Cn2cc(Cn3ccnc3)c3ccccc32)cc1` [Example XXVI, 1-benzyl-3-(imidazol-1-ylmethyl)indole hydrochloride]: the IC50 was more than 100 µM in assay [1], 0.065 µM in assay [2] and 1 µM in assay [3]. Besides, the “Ratio of (3) to (1)” value in assay [2] worked out at 15.
The corresponding values for `c1ccc2c(Cn3ccnc3)c(C3CC3)[nH]c2c1` [XIII, 2-cyclopropyl-3-(imidazol-1-ylmethyl)indole] are more than 100 µM, 0.0001 µM, 0.84 µM and 8,400.
On to `c1ccc2c(Cn3ccnc3)c(C3CCCCC3)[nH]c2c1` [XII, 2-cyclohexyl-3-(imidazol-1-ylmethyl)indole], for which the IC50 in assay [1] is more than 100 µM; in assay [2], 0.0003 µM; in assay [3], 21 µM. Moreover, the “Ratio of (3) to (1)” value in assay [2] was 70,000.
On to `c1ccc2c(Cn3ccnc3)c[nH]c2c1` [*, 3-(imidazol-1-ylmethyl)-indole], for which the values for the IC50 in assay [1], in assay [2] and in assay [3] were more than 1000 µM, 0.03 µM and 650 µM, respectively. Moreover, in assay [2], the “Ratio of (3) to (1)” value is given as 22,000.
On the same counts, the results for `Oc1ccc(-c2[nH]c3ccccc3c2Cn2ccnc2)cc1` [L, 2-(p-hydroxyphenyl)-3-(imidazol-1-ylmethyl)indole] are more than 100 µM, 0.0066 µM, 3 µM and 450.
The corresponding values for `COc1ccc2[nH]c(C)c(Cn3ccnc3)c2c1` [Example V, 3-(imidazol-1-ylmethyl)-5-methoxy-2-methylindole] are more than 100 µM, 0.062 µM, 4 µM and 65.
For the compound `Cc1[nH]c2ccccc2c1Cn1ccnc1` [II, 3-(imidazol-1-ylmethyl)-2-methylindole], the IC50 was more than 100 µM in assay [1], 0.012 µM in assay [2] and 30 µM in assay [3]. In addition, the “Ratio of (3) to (1)” value in assay [2] is given as 2,500.
For the compound `O=C(c1ccccc1)n1cc(Cn2ccnc2)c2ccccc21` [Example XL, 1-benzoyl-3-(imidazol-1-ylmethyl)indole], the IC50 was more than 100 µM in assay [1], 0.002 µM in assay [2] and 1.7 µM in assay [3]. Besides, the “Ratio of (3) to (1)” value in assay [2] was 850.
As to `Cc1cccc2c(Cn3ccnc3)c[nH]c12` [Example X, 3-(imidazol-1-ylmethyl)-7-methylindole], the IC50 was more than 100 µM in assay [1], 0.0084 µM in assay [2] and more than 100 µM in assay [3]. Besides, the “Ratio of (3) to (1)” value in assay [2] is > 12,000.
For `Cc1ccc(-c2[nH]c3ccccc3c2Cn2ccnc2)cc1` [XVII, 3-(imidazol-1-ylmethyl)-2-(p-tolyl)indole], the IC50 is more than 100 µM in assay [1], 0.00025 µM in assay [2] and 2 µM in assay [3]. Also, the “Ratio of (3) to (1)” value in assay [2] was 8,000.
Turning to `CC(C)(C)c1[nH]c2ccccc2c1Cn1ccnc1` [Example VI, 3-(imidazol-1-ylmethyl)-2-tert-butylindole], the IC50 in assay [1] is more than 100 µM.
Take `COc1ccc2[nH]cc(Cn3ccnc3)c2c1` [IV, 3-(imidazol-1-ylmethyl)-5-methoxyindole]: the IC50 in assay [1] was more than 100 µM; in assay [2], 0.2 µM; in assay [3], 100 µM. In assay [2], the “Ratio of (3) to (1)” value was determined as 500.
On the same counts, the results for `c1ccc(-c2[nH]c3ccccc3c2Cn2ccnc2)cc1` [III, 3-(imidazol-1-ylmethyl)-2-phenylindole] are more than 100 µM, 0.01 µM, 12 µM and 1,200.
As for `CC(=O)Oc1ccccc1C(=O)O` [aspirin], in assay [5], the “protection from the lethal effect of arachidonic acid injection” value is given as “protect the rabbit from the lethal effect of the injection”. In addition, the “inhibitory activity in vitro against aggregating agents” value in assay [6] is given as “show inhibitory activity in vitro”. Besides, in assay [7], the “effect on prostacyclin and thromboxane A2 levels” value was “reduce both the prostacyclin and thromboxane A2 levels”; the “inhibition of the cyclo-oxygenase enzyme” value is reported as “inhibit the cyclo-oxygenase enzyme”. Besides, the “clinical results in prevention of stroke and heart attack” value in assay [8] is “some encouraging results”.
For the compound `Clc1ccccc1-c1[nH]c2ccccc2c1Cn1ccnc1` [Example XX, 2-(o-chlorophenyl)-3-(imidazol-1-ylmethyl)indole], the IC50 in assay [1] was more than 100 µM; in assay [2], 0.003 µM; in assay [3] it was 40 µM. Also, the “Ratio of (3) to (1)” value in assay [2] is reported as 13,000.
